Measured values from patent publication US11040028B2, “Penicinotam derivative, preparation method and use thereof” (OCEAN UNIVERSITY OF CHINA, priority 2017, dated 2021).

Assays:
Type in all cases: cell-based
[1] = tested on: human embryonic lung fibroblast IMR-90; experiment: Anti-fibrosis activity test: inhibition of proliferation of human embryonic lung fibroblast IMR-90 (CCK-8)
How it was run: (§1)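 48 h compound treatment of fibroblast-type cells seeded at 2×10^4 cells/mL, 37° C, 5% CO2; viability by CCK-8 (2 h, A450). Inhibition rate calculated against blank control, IC50 by curve fitting; pirfenidone served as reference.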

[2] = tested on: cardiac fibroblast RAT-iCell-C002; experiment: Anti-fibrosis activity test: inhibition of proliferation of cardiac fibroblast RAT-iCell-C002 (CCK-8); details: Cardiac fibroblast, 48 h
How it was run: as §1

[3] = tested on: human dermal fibroblasts CCC-ESF-1; experiment: Anti-fibrosis activity test: inhibition of proliferation of human dermal fibroblasts CCC-ESF-1 (CCK-8); details: Fibroblast
How it was run: as §1

[4] = tested on: mouse macrophages (RAW264.7); experiment: Lipopolysaccharide-induced NO secretion in macrophages (Griess); details: Mus musculus, RAW264.7, 24 h, RAW264.7, LPS 1 μg/ml, a/b isomers given as first/second symbol, read-out: IC50 (μM), inhibition of lipopolysaccharide-induced NO secretion in macrophages
How it was run: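 RAW264.7 macrophages in DMEM with 10% FBS received test samples at several concentrations and were stimulated with 1 μg/ml LPS for 24 h. NO in the supernatant was measured with the Griess reagent at 548 nm, […].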

[5] = tested on: human hepatic stellate cells LX-2; experiment: Anti-fibrosis activity test: inhibition of proliferation of human hepatic stellate cells LX-2 (CCK-8); details: Homo sapiens, 48 h
How it was run: as §1

BHK-21 cells = experiment: Anti-fibrosis activity test: inhibition of BHK-21 cell proliferation (CCK-8); details: Mesocricetus auratus, BHK-21, 48 h
How it was run: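 Cells plated 2×10^4 cells/mL; 24 h attach; compound dilutions, triplicate, 48 h, 37° C/5% CO2; CCK-8 2 h; A450; IR = (1−Ai/Ao)×100%; IC50 by curve fit.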

NF-κB = experiment: Immunological activity test: inhibition of NF-κB activity; details: initial concentration of 30 μM; a/b isomers given as first/second symbol; read-out: IC50 (μM), inhibitory activity against NF-κB
How it was run: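 Single-point testing at 30 μM preceded IC50 determination.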

[6] = tested on: human fibrosarcoma cells HT-1080; experiment: Anti-fibrosis activity test: inhibition of proliferation of human fibrosarcoma cells HT-1080 (CCK-8); details: Homo sapiens, HT-1080, 48 h
How it was run: as §1

[7] = tested on: human lung fibroblasts HFL1; experiment: Anti-fibrosis activity test: inhibition of proliferation of human lung fibroblasts HFL1 (CCK-8); details: Homo sapiens, HFL1, 48 h
How it was run: as §1

[8] = human embryonic lung fibroblast IMR-90, CCK-8, 48 hours
[9] = cardiac fibroblast RAT-iCell-C002, CCK-8, 48 hours
[10] = human dermal fibroblasts CCC-ESF-1, CCK-8, 48 hours
[11] = human hepatic stellate cells LX-2, CCK-8, 48 hours
[12] = CCK-8, 48 hours after administration
[13] = human fibrosarcoma cells HT-1080, CCK-8, 48 hours
[14] = human lung fibroblasts HFL1, CCK-8, 48 hours
[15] = Homo sapiens, IMR-90 cells, 48 h, CCK-8
[16] = Homo sapiens, CCC-ESF-1 cells, 48 h, CCK-8

| IC50 [4] | IC50 (NF-κB) | IC50 [6, 13] | IC50 ([6]; HT-1080 cells, 48 h, CCK-8) | SMILES | IC50 [1, 8] | IC50 [2, 9] | IC50 [3, 10] | IC50 [5, 11] | IC50 (BHK-21 cells; [12]) | IC50 [7, 14] | IC50 [1, 15] | IC50 ([2]; RAT-iCell-C002 cells, CCK-8) | IC50 [3, 16] | IC50 ([5]; LX-2, 48 h, LX-2 cells, CCK-8) | IC50 (BHK-21 cells; 48 h, CCK-8) | IC50 ([7]; HFL1 cells, 48 h, CCK-8) |
| --- | --- | --- | --- | --- | --- | --- | --- | --- | --- | --- | --- | --- | --- | --- | --- | --- |
| 1 to 10 µM | 1 to 10 µM | 0.05 to 5 mM |  | O=C1c2c(nc3c(Cl)cccc3c2O)-c2cccn21 [Compound 443b, 5-chloro-9-hydroxy-10H-pyrrolizino[1,2-b]quinolin-10-one] | 0.05 to 5 mM | 0.05 to 5 mM | 0.05 to 5 mM | 0.05 to 5 mM | 0.05 to 5 mM | 0.05 to 5 mM |  |  |  |  |  |  |
| 1 to 10 µM | 1 to 10 µM | 0.05 to 5 mM |  | COCCOc1c2c(nc3ccccc13)-c1cccn1C2=O [Compound 652b, 9-(2-methoxyethoxy)-10H-pyrrolizino[1,2-b]quinolin-10-one] | 0.05 to 5 mM | 0.05 to 5 mM | 0.05 to 5 mM | 0.05 to 5 mM | 0.05 to 5 mM | 0.05 to 5 mM |  |  |  |  |  |  |
| 1 to 10 µM | 1 to 10 µM | 0.05 to 5 mM |  | O=C1c2c(nc3ccccc3c2OCc2ccccc2C(F)(F)F)-c2cccn21 [Compound 581b, 9-((2-(trifluoromethyl)benzyl)oxy)-10H-pyrrolizino[1,2-b]quinolin-10-one] | 0.05 to 5 mM | 0.05 to 5 mM | 0.05 to 5 mM | 0.05 to 5 mM | 0.05 to 5 mM | 0.05 to 5 mM |  |  |  |  |  |  |
| 1 to 10 µM | 1 to 10 µM | 0.05 to 5 mM |  | O=C1c2c(n(Cc3ccc(Cl)cc3F)c3ccccc3c2=O)-c2cccn21 [Compound 602a, 4-(4-Chloro-2-fluorobenzyl)-9H-pyrrolizino[1,2-b]quinoline-9,10(4H)-dione] | 0.05 to 5 mM | 0.05 to 5 mM | 0.05 to 5 mM | 0.05 to 5 mM | 0.05 to 5 mM | 0.05 to 5 mM |  |  |  |  |  |  |
| 1 to 10 µM | 1 to 10 µM | 0.05 to 5 mM |  | O=C1c2c(nc3ccccc3c2OCCCO)-c2cccn21 [Compound 16b, 9-(3-hydroxypropoxy)-10H-pyrrolizino[1,2-b]quinolin-10-one] | 0.05 to 5 mM | 0.05 to 5 mM | 0.05 to 5 mM | 0.05 to 5 mM | 0.05 to 5 mM | 0.05 to 5 mM |  |  |  |  |  |  |
| 10 to 50 µM | 1 to 10 µM |  | 0.05 to 5 mM | Cc1cccc2[nH]c3c(c(=O)c12)-c1cccn1C3=O [Compound 776a, 10-Methyl-5H-pyrrolizino[2,1-b]quinoline-5,11(6H)-dione] |  |  |  |  |  |  | 0.05 to 5 mM | 0.05 to 5 mM | 0.05 to 5 mM | 0.05 to 5 mM | < 0.05 mM | 0.05 to 5 mM |
| 1 to 10 µM | 0.1 to 1 µM | 0.05 to 5 mM |  | N#Cc1cccc2c(O)c3c(nc12)-c1cccn1C3=O [Compound 447b, 9-hydroxy-10-oxo-10H-pyrrolizino[1,2-b]quinoline-5-carbonitrile] | 0.05 to 5 mM | 0.05 to 5 mM | 0.05 to 5 mM | 0.05 to 5 mM | 0.05 to 5 mM | 0.05 to 5 mM |  |  |  |  |  |  |
| 1 to 10 µM | 1 to 10 µM | 0.05 to 5 mM |  | O=C1c2c([nH]c3c(Cl)cccc3c2=O)-c2cccn21 [Compound 443a, 5-Chloro-9H-pyrrolizino[1,2-b]quinoline-9,10(4H)-dione] | 0.05 to 5 mM | 0.05 to 5 mM | 0.05 to 5 mM | 0.05 to 5 mM | 0.05 to 5 mM | 0.05 to 5 mM |  |  |  |  |  |  |
| 1 to 10 µM | 1 to 10 µM |  | 0.05 to 5 mM | Cc1cc2n(c1)C(=O)c1nc3ccccc3c(O)c1-2 [Compound 798b, 11-hydroxy-2-methyl-5H-pyrrolizino[2,1-b]quinolin-5-one] |  |  |  |  |  |  | 0.05 to 5 mM | 0.05 to 5 mM | 0.05 to 5 mM | 0.05 to 5 mM | 0.05 to 5 mM | 0.05 to 5 mM |
| 0.1 to 1 µM | 1 to 10 µM | 0.05 to 5 mM |  | O=C1c2c(n(Cc3ccccc3C(F)(F)F)c3ccccc3c2=O)-c2cccn21 [Compound 581a, 4-(2-(Trifluoromethyl)benzyl)-9H-pyrrolizino[1,2-b]quinoline-9,10(4H)-dione] | 0.05 to 5 mM | 0.05 to 5 mM | 0.05 to 5 mM | 0.05 to 5 mM | 0.05 to 5 mM | 0.05 to 5 mM |  |  |  |  |  |  |
| 10 to 50 µM | 0.1 to 1 µM | 0.05 to 5 mM |  | O=C1c2c(n(Cc3cc(C(F)(F)F)ccc3Cl)c3ccccc3c2=O)-c2cccn21 [Compound 611a, 4-(2-Chloro-5-(trifluoromethyl)benzyl)-9H-pyrrolizino[1,2-b]quinoline-9,10(4H)-dione] | 0.05 to 5 mM | 0.05 to 5 mM | 0.05 to 5 mM | 0.05 to 5 mM | 0.05 to 5 mM | 0.05 to 5 mM |  |  |  |  |  |  |
| 1 to 10 µM | 1 to 10 µM | 0.05 to 5 mM |  | O=C1c2c(n(Cc3cccc([N+](=O)[O-])c3)c3ccccc3c2=O)-c2cccn21 [Compound 583a, 4-(3-Nitrobenzyl)-9H-pyrrolizino[1,2-b]quinoline-9,10(4H)-dione] | 0.05 to 5 mM | 0.05 to 5 mM | 0.05 to 5 mM | 0.05 to 5 mM | 0.05 to 5 mM | 0.05 to 5 mM |  |  |  |  |  |  |
| 10 to 50 µM | 1 to 10 µM | 0.05 to 5 mM |  | O=C1c2c(n(Cc3ccc(Cl)c(Cl)c3)c3ccccc3c2=O)-c2cccn21 [Compound 613a, 4-(3,4-Dichlorobenzyl)-9H-pyrrolizino[1,2-b]quinoline-9,10(4H)-dione] | 0.05 to 5 mM | 0.05 to 5 mM | 0.05 to 5 mM | 0.05 to 5 mM | < 0.05 mM | 0.05 to 5 mM |  |  |  |  |  |  |
| 1 to 10 µM | 0.1 to 1 µM |  | 0.05 to 5 mM | O=C1c2c(n(CCN3CCCCC3)c3ccccc3c2=O)-c2cccn21 [Compound 665a, 4-(2-(Piperidin-1-yl)ethyl)-9H-pyrrolizino[1,2-b]quinoline-9,10(4H)-dione] |  |  |  |  |  |  | 0.05 to 5 mM | 0.05 to 5 mM | 0.05 to 5 mM | < 0.05 mM | 0.05 to 5 mM | 0.05 to 5 mM |
| 1 to 10 µM | 0.1 to 1 µM | 0.05 to 5 mM |  | O=C1c2c(n(Cc3ccc(Br)cc3)c3ccccc3c2=O)-c2cccn21 [Compound 594a, 4-(4-Bromobenzyl)-9H-pyrrolizino[1,2-b]quinoline-9,10(4H)-dione] | 0.05 to 5 mM | 0.05 to 5 mM | 0.05 to 5 mM | 0.05 to 5 mM | < 0.05 mM | 0.05 to 5 mM |  |  |  |  |  |  |
| 1 to 10 µM | 1 to 10 µM |  | 0.05 to 5 mM | O=C1c2c(nc3ccccc3c2OCCCN2CCCCC2)-c2cccn21 [Compound 666b, 9-(3-(piperidin-1-yl)propoxy)-10H-pyrrolizino[1,2-b]quinolin-10-one] |  |  |  |  |  |  | 0.05 to 5 mM | 0.05 to 5 mM | 0.05 to 5 mM | 0.05 to 5 mM | 0.05 to 5 mM | 0.05 to 5 mM |
| 1 to 10 µM | 1 to 10 µM | < 0.05 mM |  | O=C1c2c(n(C(=O)c3ccco3)c3ccccc3c2=O)-c2cccn21 [Compound 95a, 4-(Furan-2-carbonyl)-9H-pyrrolizino[1,2-b]quinoline-9,10(4H)-dione] | < 0.05 mM | 0.05 to 5 mM | 0.05 to 5 mM | < 0.05 mM | 0.05 to 5 mM | 0.05 to 5 mM |  |  |  |  |  |  |
| 1 to 10 µM | 0.1 to 1 µM | 0.05 to 5 mM |  | O=C1c2c(n(Cc3ccc(I)cc3)c3ccccc3c2=O)-c2cccn21 [Compound 575a, 4-(4-Iodobenzyl)-9H-pyrrolizino[1,2-b]quinoline-9,10(4H)-dione] | 0.05 to 5 mM | 0.05 to 5 mM | 0.05 to 5 mM | 0.05 to 5 mM | < 0.05 mM | 0.05 to 5 mM |  |  |  |  |  |  |
